Laboratory results published in US8889671B2, “Compounds and methods for treating bacterial infections” (AstraZeneca AB, priority 2013, dated 2014).
pIC50: −log10 of the molar value. Where two headings read alike, the source gives them in different places.

Assays:
Staphylococcus aureus = experiment: Susceptibility testing (MIC) Assay 1, broth microdilution; assay type: cell-based; conditions: Staphylococcus aureus
Procedure: (§1) Minimum Inhibitory Concentrations (MICs) were determined by the broth microdilution method in accordance with the Clinical and Laboratory Standards Institute (CLSI) guidelines. In brief, organism suspensions were adjusted to a 0.5 McFarland standard to yield a final inoculum between 3×10^5 and 7×10^5 colony-forming units (CFU)/mL. Bacterial inocula were prepared for most organisms in sterile, cation adjusted Mueller-Hinton Broth (Beckton Dickinson). The streptococci were prepared as above in cation adjusted Mueller-Hinton Broth to which 2.5% lysed horse blood (Hema Resource & Supply Inc.) was added. An inoculum volume of 100 μL was added to wells (using a Tecan EVO robot) containing 2 μL of DMSO containing 2-fold serial dilutions of drug. All inoculated microdilution trays were incubated in ambient air at 35° C. for 18-24 hours. Following incubation, the lowest concentration of the drug that prevented visible growth as read at OD600 nm and confirmed by a visual read using a test reading mirror was recorded as the MIC. Performance of the assay was monitored by the use of laboratory quality-control strains and commercially available control compounds with defined MIC spectrums, in accordance with CLSI guidelines. Table 1 provides the MIC results (μM) of Examples 1-77 tested in Assay 1. Table 2 provides the MIC (μg/mL) results of Examples 78-80 tested in Assay 1.

Streptococcus pneumoniae = experiment: as above; assay type: cell-based
Procedure: as §1

Streptococcus pyogenes = experiment: as above; assay type: cell-based; conditions: Streptococcus pyogenes, in vivo strain, read-out: Spy MIC
Procedure: as §1

Escherichia coli = experiment: Susceptibility testing (MIC) Assay 2, broth microdilution; assay type: cell-based
Procedure: (§2) Minimum Inhibitory Concentrations (MICs) were determined by the broth microdilution method in accordance with the Clinical and Laboratory Standards Institute (CLSI) guidelines. In brief, organism suspensions were adjusted to a 0.5 McFarland standard to yield a final inoculum between 3×10^5 and 7×10^5 colony-forming units (CFU)/mL. Bacterial inocula were generally prepared in sterile, cation adjusted Mueller-Hinton Broth (Becton Dickinson) which included Escherichia coli, Klebsiella pneumoniae, and Pseudomonas aeruginosa. Haemophilus influenzae bacterial inocula were prepared in sterile, cation adjusted Mueller-Hinton Broth (Becton Dickinson) containing 0.5% yeast extract (Becton Dickinson) plus 30 mL of 15 μg/mL Bovine Hematin stock (Sigma), and 3 mL of 15 μg/mL β-nicotinamide adenine dinucleotide (Sigma). Strains of Neisseria were tested for MICs using agar dilution methodology in accordance with CLSI guidelines. For broth microdilution testing, an inoculum volume of 100 μL was added to wells (using a Tecan EVO robot) containing 2 μL of DMSO containing 2-fold serial dilutions of drug. All inoculated microdilution panels were incubated in ambient air at 35° C. for 18-24 hours. Following incubation, the lowest concentration of the drug that prevented visible growth as read at OD600 nm and confirmed by a visual read using a test reading mirror was recorded as the MIC. Performance of the assay was monitored by the use of laboratory quality-control strains and commercially available control compounds with defined MIC spectrums, in accordance with CLSI guidelines. Table 3 provides the MIC results (μM) of Examples 1-77 tested in Assay 2. Table 4 provides the MIC (μg/mL) results of Examples 78-80 tested in Assay 2.

Haemophilus influenzae = experiment: as above; assay type: cell-based
Procedure: as §2

Klebsiella pneumoniae = experiment: as above; assay type: cell-based
Procedure: as §2

Pseudomonas aeruginosa = experiment: as above; assay type: cell-based; conditions: PAO1, read-out: Pae MIC
Procedure: as §2

[1] = target: Escherichia coli DNA gyrase A/B tetramer (Escherichia coli (strain K12), UniProt P0AES4+P0AES6); experiment: DNA gyrase supercoiling activity fluorescence polarisation assay; assay type: biochemical; conditions: Eco Gyr FP Mean IC50, E. coli DNA gyrase supercoiling, 0.3 mM ATP
Procedure: In a black, 384-well polystyrene assay plate, 30 microliters/well of 5 nM Escherichia coli DNA gyrase A/B tetramer and 130 micrograms/mL of topologically relaxed plasmid containing the triplex-forming sequence
in an assay buffer consisting of 35 mM Tris-HCl (pH 7.5), 24 mM KCl, 4 mM MgCl2, 2 mM dithiothreitol, 1.8 mM spermidine, 5% (v/v) glycerol, 200 nM bovine serum albumin, 0.8% dimethylsulfoxide, and 0.3 mM ATP were incubated at ambient temperature for (typically 30 minutes) in the absence or presence of 5-10 different concentrations of test compound. The supercoiling reactions were quenched by the addition of 10 microliters/well of 40 nM oligodeoxynucleotide probe in 3× triplex-forming buffer consisting of 150 mM NaCl, and 150 mM sodium acetate at pH 3.5. The oligodeoxynucleotide probe was 5′-BODIPY-FL-labeled
After 60 minutes, the fluorescence anisotropy of the BODIPY-FL was measured in a Tecan Ultra plate reader, using 485 nm excitation and 535 nm emission filters equipped with polarizers. The IC50 was determined by nonlinear regression using two control reactions.

[2] = Staphylococcus aureus in vivo strain, MSQS, read-out: Sau(d) MIC
[3] = in vivo strain, MRQR, read-out: Sau(e) MIC
[4] = in vivo strain (footnote b), read-out: Spn(b) MIC
[5] = in vivo strain (footnote c), read-out: Spn(c) MIC
[6] = ATCC51907, Haemophilus influenzae, ATCC 51907, in vivo strain, read-out: Hin MIC
[7] = clinical isolate, mucoid, read-out: Kpn MIC

Compound	MIC (Staphylococcus aureus; [2]) [µM]	MIC (Staphylococcus aureus; [3])	MIC (Staphylococcus aureus; serum, read-out: Sau(f) MIC) [µM]	MIC (Streptococcus pneumoniae; [4]) [µM]	MIC (Streptococcus pneumoniae; [5]) [µM]	MIC (Streptococcus pyogenes; Streptococcus pyrgenes) [µM]	MIC (Escherichia coli; K12, read-out: Eco MIC) [µM]	MIC (Haemophilus influenzae; [6]) [µM]	MIC (Klebsiella pneumoniae; [7]) [µM]	MIC (Pseudomonas aeruginosa) [µM]	pIC50 [1]	also measured
C[C@@H]1CN2c3c(cc4c(N5C(=O)OC[C@H]5c5ccncc5)noc4c3F)CC3(C(=O)NC(=O)NC3=O)[C@H]2[C@H](C)O1 [Example 57, (2R,4S,4aS)-11-Fluoro-2,4-dimethyl-8-((R)-2-oxo-4-(pyridin-4-yl)oxazolidin-3-yl)-2,4,4a,6-tetrahydro-1H,1′H-spiro[isoxazolo[4,5-g][1,4]oxazino[4,3-a]quinoline-5,5′-pyrimidine]-2′,4′,6′(3′H)-trione]	1.6	6.2 µM	3.1	0.78	1.6	0.78	100	0.39	> 200	> 200	6.12	–
C[C@@H]1CN2c3c(cc4c(N5C[C@@H](CF)OC5=O)noc4c3F)CC3(C(=O)NC(=O)NC3=O)[C@H]2[C@H](C)O1 [Example 19]	0.14	0.78 µM	0.28	< 0.2	0.24	< 0.2	8.8	0.28	200	> 200	6.80	–
C[C@@H]1CN2c3c(cc4c(N5C(=O)OC[C@@H]5CS(C)(=O)=O)noc4c3F)CC3(C(=O)NC(=O)NC3=O)[C@H]2[C@H](C)O1 [Example 46]	1.6	6.2 µM	1.6	0.78	1.6	0.39	100	0.78	> 200	> 200	6.77	–
C[C@@H]1CN2c3c(cc4c(N5C(=O)O[C@H](C)[C@@H]5CF)noc4c3F)CC3(C(=O)NC(=O)NC3=O)[C@H]2[C@H](C)O1 [Example 78, (2R,4S,4aS)-11-Fluoro-8-((4R,5R)-4-(fluoromethyl)-5-methyl-2-oxooxazolidin-3-yl)-2,4-dimethyl-2,4,4a,6-tetrahydro-1H,1′H-spiro[isoxazolo[4,5-g][1,4]oxazino[4,3-a]quinoline-5,5′-pyrimidine]-2′,4′,6′(3′H)-trione]	–	2 µg/mL	–	–	–	–	–	–	–	–	6.36	MIC (Staphylococcus aureus; ATCC29213, Staphylococcus aureus, in vivo strain, ATCC 29213, read-out: Sau(d) MIC): 1 µg/mL; MIC (Staphylococcus aureus; MRSA, in vivo strain, MRSA, read-out: Sau(f) MIC): 1 µg/mL; MIC (Streptococcus pneumoniae; ATCC49619, Streptococcus pneumoniae, ATCC 49619, read-out: Spn(c) MIC): 2 µg/mL; MIC (Streptococcus pneumoniae; in vivo strain, read-out: Spn(b) MIC): 2 µg/mL; MIC (Streptococcus pyogenes; Streptococcus pyrogenes): 1 µg/mL; MIC (Escherichia coli; ATCC25922, Escherichia coli, in vivo strain, ATCC 25922, read-out: Eco(b) MIC): 16 µg/mL; MIC (Escherichia coli; ATCC35218, Escherichia coli, ATCC 35218, read-out: Eco(c) MIC): 32 µg/mL; MIC (Haemophilus influenzae; ATCC49247, Haemophilus influenzae, ATCC 49247, read-out: Hin MIC): 2 µg/mL; MIC (Klebsiella pneumoniae; ATCC700603, ATCC 700603, read-out: Kpn(e) MIC): > 64 µg/mL; MIC (Klebsiella pneumoniae; clinical isolate, mucoid, read-out: Kpn(d) MIC): > 64 µg/mL; MIC (Pseudomonas aeruginosa; Pseudomonoas aeruginosa): > 64 µg/mL
CC[C@@H]1COC(=O)N1c1noc2c(F)c3c(cc12)CC1(C(=O)NC(=O)NC1=O)[C@H]1[C@H](C)O[C@H](C)CN31 [Example 7]	6.2	12 µM	25	25	12	6.2	200	12	> 200	> 200	5.01	–
C[C@@H]1CN2c3c(cc4c(N5C(=O)OC[C@@H]5c5ccccc5)noc4c3F)CC3(C(=O)NC(=O)NC3=O)[C@H]2[C@H](C)O1 [Example 9, (2R,4S,4aS)-11-Fluoro-2,4-dimethyl-8-[(4S)-2-oxo-4-phenyl-1,3-oxazolidin-3-yl]-1,2,4,4a-tetrahydro-2′H,6H-spiro[1,4-oxazino[4,3-a][1,2]oxazolo[4,5-g]quinoline-5,5′-pyrimidine]-2′,4′,6′(1′H,3′H)-trione]	0.78	0.78 µM	12	1.6	1.6	0.78	50	0.39	> 200	> 200	6.15	–
C[C@@H]1CN2c3c(cc4c(N5C(=O)OC[C@@H]5CF)noc4c3F)CC3(C(=O)NC(=O)NC3=O)[C@H]2[C@H](C)O1 [Example 15, (2R,4S,4aS)-11-Fluoro-8-[(4R)-4-(fluoromethyl)-2-oxo-1,3-oxazolidin-3-yl]-2,4-dimethyl-1,2,4,4a-tetrahydro-2′H,6H-spiro[1,4-oxazino[4,3-a][1,2]oxazolo[4,5-g]quinoline-5,5′-pyrimidine]-2′,4′,6′(1′H,3′H)-trione]	0.28	0.78 µM	0.39	0.28	0.39	< 0.2	12	< 0.2	> 200	> 200	6.89	–
C[C@@H]1CN2c3c(cc4c(N5C(=O)OC[C@H]5c5ccccn5)noc4c3F)CC3(C(=O)NC(=O)NC3=O)[C@H]2[C@H](C)O1 [Example 55, (2R,4S,4aS)-11-Fluoro-2,4-dimethyl-8-((R)-2-oxo-4-(pyridin-2-yl)oxazolidin-3-yl)-2,4,4a,6-tetrahydro-1H,1′H-spiro[isoxazolo[4,5-g][1,4]oxazino[4,3-a]quinoline-5,5′-pyrimidine]-2′,4′,6′(3′H)-trione]	0.78	1.6 µM	1.6	0.78	0.78	0.78	50	0.39	> 200	> 200	6.82	–
C[C@@H]1CN2c3c(cc4c(N5C[C@@H](CO)OC5=O)noc4c3F)CC3(C(=O)NC(=O)NC3=O)[C@H]2[C@H](C)O1 [Example 26, (2R,4S,4aS)-11-Fluoro-8-((S)-5-(hydroxymethyl)-2-oxooxazolidin-3-yl)-2,4-dimethyl-2,4,4a,6-tetrahydro-1H,1′H-spiro[isoxazolo[4,5-g][1,4]oxazino[4,3-a]quinoline-5,5′-pyrimidine]-2′,4′,6′(3′H)-trione]	2.2	12 µM	1.6	0.28	0.55	< 0.2	25	< 0.2	> 200	> 200	6.77	–
